The source of these data is patent US20240360137A1 (Novartis AG, priority 2023, published 2024).

Assay in all cases: CDKi biochemical assay (TR-FRET, phosphorylation of S780 on RB1 peptide)
One assay deals with CDK2/CyclinE1 (Homo sapiens, UniProt P24941). The following applies: CDK2/CyclinE1 100 pM, 1 mM ATP, 60 min at 25° C. The method in brief: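 CDK2/CyclinE1 (Avi-tag, 100 pM; CDK2 E. coli-expressed) phosphorylated His-MBP-RB1[773-924] (200 nM) at S780 with 1 mM ATP in HEPES pH 7.5/MgCl2/DTT, 60 min at 25° C. After EDTA quench, TR-FRET detection ran 3 h (Eu anti-p-RB S780, SA-APC). Apparent IC50 came from percent activity versus log concentration.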

The next assay deals with CDK1/CyclinB1 (Homo sapiens, UniProt P06493). The following applies: CDK1/CyclinB1 10 pM, 1 mM ATP, 60 min at 25° C. An outline of the steps:
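CDK1/CyclinB1 (10 pM, Avi-tagged, insect-cell expressed) phosphorylated S780 of His-MBP-RB1[773-924] (200 nM) with 1 mM ATP in HEPES pH 7.5, 10 mM MgCl2, 1 mM DTT, 60 min at 25 °C. After EDTA quench, TR-FRET detection (Eu anti-pRB S780, SA-APC) for 3 h; apparent IC50 from percent activity versus log concentration.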

The next assay has as its target CDK4/cyclinD1 (Homo sapiens, UniProt P11802). The following applies: CDK4/cyclinD1 20 pM, 1 mM ATP, 60 min at 25° C. An outline of the steps:
(§1)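 Avi-tagged, biotinylated CDK4/cyclinD1 (20 pM) or CDK6/cyclinD3 (10 pM) phosphorylates 200 nM His-MBP-RB1[773-924] at S780 with 1 mM ATP in HEPES pH 7.5/MgCl2, 60 min, 25° C. After EDTA quench, Eu anti-pRB(S780)/SA-APC TR-FRET is read after 3 h. Apparent IC50 comes from % activity versus log concentration.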

Another assay addresses CDK6/cyclinD3 (Homo sapiens, UniProt Q00534). As to conditions: CDK6/cyclinD3 10 pM, 1 mM ATP, 60 min at 25° C. An outline of the steps:
as §1

With `CN1C[C@@H](F)[C@H](Oc2n[nH]cc2Nc2ncc3c(n2)N([C@@H]2CCC[C@@H](O)C2)C(=O)C32CC2)C1` [Example 50, 2′-((3-(((3R,4R)-4-fluoro-1-methylpyrrolidin-3-yl)oxy)-1H-pyrazol-4-yl)amino)-7′-((1R,3R)-3-hydroxycyclohexyl)spiro[cyclopropane-1,5′-pyrrolo[2,3-d]pyrimidin]-6′(7′H)-one], the 50% inhibitory concentration (IC50) at CDK2/CyclinE1 is 0.125 µM; against CDK1/CyclinB1, at least 10 µM; against CDK4/cyclinD1, at least 10 µM; against CDK6/cyclinD3, at least 10 µM.
`O=C1N([C@@H]2CCC[C@@H](O)C2)c2nc(Nc3c[nH]nc3OC[C@H]3CCOC3)ncc2C12CC2` [Example 72, 7′-((1R,3R)-3-hydroxycyclohexyl)-2′-((3-(((S)-tetrahydrofuran-3-yl)methoxy)-1H-pyrazol-4-yl)amino)spiro[cyclopropane-1,5′-pyrrolo[2,3-d]pyrimidin]-6′(7′H)-one]: the 50% inhibitory concentration (IC50) against CDK2/CyclinE1 is 0.061 µM; at CDK1/CyclinB1, 7.5 µM; on CDK4/cyclinD1, at least 10 µM; on CDK6/cyclinD3, at least 10 µM.
`O=C1N([C@@H]2CCC[C@@H](O)C2)c2nc(Nc3c[nH]nc3OC3CC(F)(F)C3)ncc2C12CC2` [Example 29, 2′-((3-(3,3-difluorocyclobutoxy)-1H-pyrazol-4-yl)amino)-7′-((1R,3R)-3-hydroxycyclohexyl)spiro[cyclopropane-1,5′-pyrrolo[2,3-d]pyrimidin]-6′(7′H)-one]: the IC50 at CDK2/CyclinE1 is 0.026 µM; against CDK1/CyclinB1, 3.84 µM; against CDK4/cyclinD1 it was 7.4 µM; against CDK6/cyclinD3 it was at least 10 µM.
Taken in the same sequence, the figures for `O=C1N([C@@H]2CCC[C@@H](O)C2)c2nc(Nc3c[nH]nc3[C@@H]3CC3(F)F)ncc2C12CC2` [Example 33, 2′-((3-((S)-2,2-difluorocyclopropyl)-1H-pyrazol-4-yl)amino)-7′-((1R,3R)-3-hydroxycyclohexyl)spiro[cyclopropane-1,5′-pyrrolo[2,3-d]pyrimidin]-6′(7′H)-one] were 0.049 µM, 3.76 µM, at least 10 µM and at least 10 µM.
For `O=C1N([C@@H]2CCC[C@@H](O)C2)c2nc(Nc3c[nH]nc3OC3CN(CC(F)(F)F)C3)ncc2C12CC2` [Example 46, 7′-((1R,3R)-3-hydroxycyclohexyl)-2′-((3-((1-(2,2,2-trifluoroethyl)azetidin-3-yl)oxy)-1H-pyrazol-4-yl)amino)spiro[cyclopropane-1,5′-pyrrolo[2,3-d]pyrimidin]-6′(7′H)-one], the IC50 is 0.109 µM against CDK2/CyclinE1, at least 10 µM against CDK1/CyclinB1, at least 10 µM at CDK4/cyclinD1 and at least 10 µM on CDK6/cyclinD3.
As for `O=C1N([C@@H]2CCC[C@@H](O)C2)c2nc(Nc3c[nH]nc3-c3cnn4c3CCCC4)ncc2C12CC2` [Example 73, 7′-((1R,3R)-3-hydroxycyclohexyl)-2′-((3-(4,5,6,7-tetrahydropyrazolo[1,5-a]pyridin-3-yl)-1H-pyrazol-4-yl)amino)spiro[cyclopropane-1,5′-pyrrolo[2,3-d]pyrimidin]-6′(7′H)-one], the IC50 against CDK2/CyclinE1 was 0.049 µM; at CDK1/CyclinB1, at least 10 µM; at CDK4/cyclinD1, at least 10 µM; on CDK6/cyclinD3, at least 10 µM.
As to `[2H]C([2H])([2H])Oc1n[nH]cc1Nc1ncc2c(n1)N([C@@H]1CCC[C@@H](O)C1)C(=O)C21CC1` [Example 49, 7′-((1R,3R)-3-hydroxycyclohexyl)-2′-((3-(methoxy-d3)-1H-pyrazol-4-yl)amino)spiro[cyclopropane-1,5′-pyrrolo[2,3-d]pyrimidin]-6′(7′H)-one], the 50% inhibitory concentration (IC50) on CDK2/CyclinE1 was 0.015 µM; against CDK1/CyclinB1 it was 2.64 µM; against CDK4/cyclinD1, 9.77 µM; on CDK6/cyclinD3, at least 10 µM.
The matching figures for `O=C1N([C@@H]2CCC[C@@H](O)C2)c2nc(Nc3c[nH]nc3-c3ccncc3)ncc2C12CC2` [Example 59, 7′-((1R,3R)-3-hydroxycyclohexyl)-2′-((3-(pyridin-4-yl)-1H-pyrazol-4-yl)amino)spiro[cyclopropane-1,5′-pyrrolo[2,3-d]pyrimidin]-6′(7′H)-one]: 0.251 µM, at least 10 µM, at least 10 µM and at least 10 µM.
Taken in the same sequence, the figures for `CO[C@H]1C[C@H](Oc2n[nH]cc2Nc2ncc3c(n2)N([C@@H]2CCC[C@@H](O)C2)C(=O)C32CC2)C1` [Example 82, 7′-((1R,3R)-3-hydroxycyclohexyl)-2′-((3-((1r,3R)-3-methoxycyclobutoxy)-1H-pyrazol-4-yl)amino)spiro[cyclopropane-1,5′-pyrrolo[2,3-d]pyrimidin]-6′(7′H)-one] were 0.026 µM, 2.53 µM, at least 10 µM and at least 10 µM.
Taken in the same sequence, the figures for `COC(=O)c1n[nH]cc1Nc1ncc2c(n1)N([C@@H]1CCC[C@@H](O)C1)C(=O)C21CC1` [Example 4, methyl 4-((7′-((1R,3R)-3-hydroxycyclohexyl)-6′-oxo-6′,7′-dihydrospiro[cyclopropane-1,5′-pyrrolo[2,3-d]pyrimidin]-2′-yl)amino)-1H-pyrazole-3-carboxylate] were 0.096 µM, at least 10 µM, at least 10 µM and at least 10 µM.
In the case of `COCC(F)(F)COc1n[nH]cc1Nc1ncc2c(n1)N([C@@H]1CCC[C@@H](O)C1)C(=O)C21CC1` [Example 44, 2′-((3-(2,2-difluoro-3-methoxypropoxy)-1H-pyrazol-4-yl)amino)-7′-((1R,3R)-3-hydroxycyclohexyl)spiro[cyclopropane-1,5′-pyrrolo[2,3-d]pyrimidin]-6′(7′H)-one], the half-inhibitory concentration (IC50) on CDK2/CyclinE1 was found to be 0.015 µM; on CDK1/CyclinB1, 1.81 µM; on CDK4/cyclinD1 it was 4.41 µM; at CDK6/cyclinD3, 7.13 µM.
Taken in the same sequence, the figures for `Cn1ccc(-c2n[nH]cc2Nc2ncc3c(n2)N([C@@H]2CCC[C@@H](O)C2)C(=O)C32CC2)n1` [Example 79, 7-((1R,3R)-3-hydroxycyclohexyl)-2′-((1′-methyl-1H,1′H-[3,3′-bipyrazol]-4-yl)amino)spiro[cyclopropane-1,5′-pyrrolo[2,3-d]pyrimidin]-6′(7′H)-one] were 0.05 µM, at least 10 µM, at least 10 µM and at least 10 µM.
The matching figures for `O=C1N([C@@H]2CCC[C@@H](O)C2)c2nc(Nc3c[nH]nc3OC3CCOCC3)ncc2C12CC2` [Example 74, 7′-((1R,3R)-3-hydroxycyclohexyl)-2′-((3-((tetrahydro-2H-pyran-4-yl)oxy)-1H-pyrazol-4-yl)amino)spiro[cyclopropane-1,5′-pyrrolo[2,3-d]pyrimidin]-6′(7′H)-one]: 0.255 µM, at least 10 µM, at least 10 µM and at least 10 µM.
Taken in the same sequence, the figures for `O=C1N([C@@H]2CCC[C@@H](O)C2)c2nc(Nc3c[nH]nc3C3CCCCO3)ncc2C12CC2` (stereo partly drawn) [Example 10, 7′-((1R,3R)-3-hydroxycyclohexyl)-2′-((3-(tetrahydro-2H-pyran-2-yl)-1H-pyrazol-4-yl)amino)spiro[cyclopropane-1,5′-pyrrolo[2,3-d]pyrimidin]-6′(7′H)-one] were 1.22 µM, at least 10 µM, at least 10 µM and at least 10 µM.
